Measurements as given in patent publication EP0194571A1, “Heterocyclic disulfides, process for their preparation and pharmaceutical preparations containing them” (HOECHST AKTIENGESELLSCHAFT, priority 1985, dated 1986).

Columns and labels:
Assay type in all cases: in vivo, NMRI-Mäuse
[1] = test system: Maus-Peritonealmakrophagen; assay: Activation of mononuclear phagocytes: release of lysosomal hydrolases (exocytosis) by peritoneal macrophages from treated mice; settings: lysosomal enzyme activity, relative to maximal activation by compound of Beispiel 8 = 100 %; 100 mg/kg i.p.
Description: (§1) Hier wurde der Einfluß der nach Ausführungsbeispiel 8 erhaltenen Prüfsubstanz auf die Stimulation von Peritonealmakrophagen bei 6- 8 Wochen alten NMRI-Mäusen untersucht. Mäuseweibchen erhielten auf parenteralem oder oralem Wege die Prüfsubstanz in einer Dosis von 25 mg/kg, 50 mg/kg, 100 mg/kg und 200 mg/kg. Der Kontrollgruppe wurde gepufferte Kochsalzlösung verabreicht. Drei Tage nach den Injektionen wurden die Mäuse getötet, und es wurden die Peritonealmakrophagen der Tiere auf ihren Aktivierungszustand hin untersucht. Als Maß der Makrophagenaktivierung wurde zum einen die Sekretion der lyosomalen Enzyme (ß-Galactosidase, ß-Glucuronidase, N-Acetyl-ß-D-Glucosaminidase) bestimmt. Auf der anderen Seite konnte in vergleichbaren Makrophagenkulturen die Pinozytose durch die Aufnahme von kolloidalem Gold (^19^8Au) - wie sie dem Fachmann bekannt ist - untersucht werden. Die Höhe des oxidativen Stoffwechsels bei Makrophagen gilt als ein weiteres Maß für ihren Aktivierungszustand. Gemessen wird diese Aktivität unter Zuhilfenahme des Biolumaten durch Bestimmung der Chemolumineszenz.
(§2) Zu diesem Zweck wurden entweder in Petrischalen von 30 mm Durchmesser 3 x 10^6 Makrophagen mit 1 ml TC 199-Kulturmedium oder aber 10^6 Makrophagen mit 100 µl in Rundbogen-Polyäthylen-Röhrchen (zur Bestimmung der Chemolumineszenz) bei 5 % G02 und 37°C kultiviert.
(§3) Nach einstündiger Bebrütung wurden die Kulturen gewaschen, um schwimmende Zellen zu entfernen. Die Chemolumineszenz (Röhrchenkultur) wurde dann direkt bestimmt, während die Petrischalen erneut 24 Stunden bei 37°C bebrütet wurden und danach die Enzym- und Pinozytoseaktivität in den Kulturen bestimmt wurde. Es wurden die nachstehenden Ergebnisse erzielt.
Aus der Tabelle 3 ist zu entnehmen, daß Makrophagen von Kontrollmäusen nur geringe Mengen an lysosomalen Enzymen (ß-Glucuronidase, ß-Galactosidase, N-Acetyl-ß-D-Glucosaminidase) in den Kulturüberstand abgeben. Mononukleare Phagozyten von Mäusen, die parenteral oder oral mit der Prüfsubstanz 72 Stunden behandelt wurde, sezernieren die o.a. sauren Hydrolasen (ß-Glu, ß-Gal, N-Ac-Glu) deutlich mehr und weisen damit eine Dosiswirkungskurve auf, die bei allen gemessenen Enzymen eine Überlegenheit gegenüber den Kontrollen erkennen läßt. Es ist ersichtlich, daß die Prüfsubstanz eine stimulierende Wirkung auf die Makrophagenaktivität besitzt und zur Erhöhung der Enzymfreisetzung beiträgt.
(§4) Wie im Experiment 2 beschrieben, wurden NMRI-Mäuse mit den erfindungsgemäßen Verbindungen behandelt.
(§5) Als Test zur Erfassung der Immunstimulation wurde die Funktion der Makrophagen (Chemolumineszenz und Enzymaktivität) überprüft.
(§6) Tabelle 8 zeigt die relative Wirksamkeit der Prüfsubstanzen bezogen auf die Verbindung aus Beispiel 8, deren maximale Aktivierung (Differenz zwischen Kontrolle und Stimulation) 100 % entspricht. Der Tabelle ist zu entnehmen, daß im Vergleich zu Makrophagen aus unbehandelten Tieren, diese Zellen auch durch alle Prüfsubstanzen in ihrer Chemolumineszenzreaktion stark stimuliert und in ihrem Gehalt an lysosomalen Enzymen deutlich erhöht waren.

[2] = test system: Maus-Peritonealmakrophagen; assay: Activation of mononuclear phagocytes: oxidative metabolism (chemiluminescence) of peritoneal macrophages from treated mice; settings: relative to maximal activation by compound of Beispiel 8 = 100 %; 100 mg/kg i.p.
Description: as §1, §2, §3
Die parenterale sowie die orale Behandlung von NMRI-Mäusen mit der gemäß Beispiel 8 hergestellten Prüfsubstanz stimuliert die Makrophagenaktivität und hat damit eine immunitätstimulierende Wirkung. So wird der oxidative Stoffwechsel bei Makrophagen mit der Generierung von Sauerstoffradikalen und dem damit verbundenen meßbaren Licht deutlich erhöht. Bei Dosierungen von 25 mg/kg aufwärts kommt es zu einer dosisabhänigen Steigerung der Makrophagenaktivität sowohl bei parenteraler als auch oraler Applikation.
as §4, §5, §6

[3] = test system: zelluläre Immunantwort (DTH-Reaktion) gegen Schafserythrozyten; assay: Delayed type hypersensitivity (DTH) reaction against sheep erythrocytes, foot swelling in mice; settings: relative to maximal activation by compound of Beispiel 8 = 100 %, 1 x i.p. Tag 0

| Compound | Makrophagenaktivität Exozytose [1] [%] | Makrophagenaktivität Chemolumineszenz [2] [%] | DTH-Reaktion (SRBC) ([3]; Dosis 100 mg/kg) [%] | DTH-Reaktion (SRBC) ([3]; Dosis 200 mg/kg) [%] | DTH-Reaktion (SRBC) ([3]; Dosis 20 mg/kg) [%] | DTH-Reaktion (SRBC) ([3]; Dosis 10 mg/kg) [%] |
| --- | --- | --- | --- | --- | --- | --- |
| Oc1nc(SSc2nc(O)nn2-c2ccccc2)n(-c2ccccc2)n1 [Beispiel 1, Bis-(3-Hydroxy-1-phenyl-1,2,4-triazol-5-yl)-disulfid] | 48 | 30 |  |  |  |  |
| Cn1nc(O)c(=O)nc1SSc1nc(=O)c(O)nn1C [Beispiel 6] | 33 | 26 | 100 |  |  |  |
| O=C(O)c1cnc(SSc2ncc(C(=O)O)s2)s1 [Beispiel 12, Bis-(5-Carboxy-1,3-thiazol-2-yl)-disulfid] | 54 | 39 | 96 |  |  |  |
| C=C(Cl)Cn1c(SSc2nnc(O)c(=O)n2CC(=C)Cl)nnc(O)c1=O [Beispiel 5] | 45 | 37 |  | 61 |  |  |
| O=C(O)c1ccc2nc(SSc3nc4ccc(C(=O)O)cc4[nH]3)[nH]c2c1 [Beispiel 2, Bis-(5-Carboxy-benzimidazol-2-yl)-disulfid] | 53 | 72 |  |  | 88 |  |
| Cc1nc(SSc2nc(C)c(C(=O)O)s2)sc1C(=O)O [Beispiel 13] | 77 | 81 |  | 147 |  |  |
| Cc1sc(SSc2nc(CC(=O)O)c(C)s2)nc1CC(=O)O [Beispiel 14, Bis-(4-Carboxymethyl-5-methyl-thiazol-2-yl)-disulfid] | 93 | 97 | 118 |  |  |  |
| O=C(O)Cc1csc(SSc2nc(CC(=O)O)cs2)n1 [Beispiel 10, Bis-(4-Carboxymethyl-1,3-thiazol-2-yl)-disulfid] | 21 | 66 |  |  |  | 112 |
